Laboratory results reported in patent US20060094059A1, “Methods for identifying new drug leads and new therapeutic uses for known drugs” (Odyssey Thera, Inc., priority 2004, published 2006).

Assays:
[1] = tested on: colon adenocarcinoma (LoVo) cells; assay: MTT proliferation assay, colon; assay type: cell-based, Human; conditions: Homo sapiens, Tumor Cell Colon (LoVo), 120 hours, read-out: Anti-proliferative IC-50
Protocol: (§1) Cells were maintained in various media as follows: A549, LoVo and PC-3 (Ham's F12K medium with 2 mM L-glutamine and 1.5 g/L sodium bicarbonate), MIA PaCa-2 (Dulbecco's modified Eagle's medium with 4 mM L-glutamine and 4.5 g/L glucose), U87-MG (MEM+Earle's BSS). Medium for each cell line was supplemented with 10% FBS and […] Penecillin/Streptomycin. All cells were grown in incubators set at 37° C., 5% CO2. Thiazolyl Blue Tetrazolium Bromide (MTT) based proliferation assays were performed to assess the anti-proliferative activities of the compounds on these cells. Cells were seeded in 96 well plates at a density of 750 cells/well 24 hours prior to compound treatment. The cells were incubated with varying concentrations of compounds for 120 hours. […] Drug treatment was performed in 5 replicate wells. Background absorbance was established by wells containing medium but no cells. Vehicle (DMSO) only was used as control. MTT (Sigma-Aldrich, St. Louis, Mo.) was added to each well at a final concentration of 0.5 mg/ml. Following a 2 hour incubation at 37° C., medium in the wells was replaced with 0.15 ml DMSO. The plates were agitated for 15 min using a microtiter plate shaker.

[2] = tested on: glioblastoma (U-87 MG) cells; assay: MTT proliferation assay, glioblastoma; assay type: cell-based; conditions: Homo sapiens, Tumor Cell Glioblastoma (U-87 MG), 120 hours, read-out: Anti-proliferative IC-50
Protocol: as §1

IC50 [1]: 450 nM | IC50 [2]: 810 nM
SMILES: O=C(Nc1ccc([N+](=O)[O-])cc1Cl)c1cc(Cl)ccc1O [Niclosamide]
